Experimental data: patent US9113629B2, “4-amino-6-(4-substituted-phenyl)-picolinates and 6-amino-2-(4-substituted-phenyl)-pyrimidine-4-carboxylates and their use as herbicides” (DOW AGROSCIENCES LLC, priority 2013, dated 2015)
Read-outs that look alike come from different tables or passages of the source.

Assays:
[1] = tested on: Key Broadleaf Weed and Crop Species; experiment: Post-emergent Test II herbicidal activity (Table 5); type: in vivo; settings: post-emergence, 336 h, post-emergent, 14 days after application; for pest or weed control at 70 g/ha: 70 g ai/ha; for pest or weed control at 140 g/ha: 140 g ai/ha
Outline: (§1)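 Injury was rated visually 14 d after treatment on a 0–100% scale against untreated controls. Test compounds, formulated with crop oil concentrate and surfactant and serially diluted down to 1/16× of the top rate, were applied by track sprayer at 187 L/ha onto first- to second-true-leaf seedlings.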

[2] = tested on: Key Grass and Sedge Weeds as well as Grass Crops; experiment: Post-emergent Test II herbicidal activity (Table 6); type: in vivo; settings: post-emergence, 336 h; for pest or weed control at 70 g/ha: application rate 70 g ai/ha; for pest or weed control at 140 g/ha: application rate 140 g ai/ha
Outline: as §1

[3] = ABUTH: velvetleaf (Abutilon theophrasti), read-out: Visual Growth Reduction (%) 14 Days After Application ABUTH
[4] = AMARE: redroot pigweed (Amaranthus retroflexus), read-out: Visual Growth Reduction (%) 14 Days After Application AMARE
[5] = BRSNN: oilseed-rape, canola (Brassica napus), read-out: Visual Growth Reduction (%) 14 Days After Application BRSNN
[6] = CHEAL: lambsquarters (Chenopodium album), read-out: Visual Growth Reduction (%) 14 Days After Application CHEAL
[7] = EPHHL: wild poinsettia (Euphorbia heterophylla), read-out: Visual Growth Reduction (%) 14 Days After Application EPHHL
[8] = HELAN: sunflower (Helianthus annuus), read-out: Visual Growth Reduction (%) 14 Days After Application HELAN
[9] = VIOTR: wild pansy (Viola tricolor), read-out: Visual Growth Reduction (%) 14 Days After Application VIOTR
[10] = Triticum aestivum, TRZSS (wheat), read-out: Visual Growth Reduction (%) 14 Days After Application, TRZSS
[11] = CYPES: yellow nutsedge (Cyperus esculentus), read-out: Visual Growth Reduction (%) 14 Days After Application, CYPES
[12] = DIGSA: crabgrass (Digitaria sanguinalis), read-out: Visual Growth Reduction (%) 14 Days After Application, DIGSA
[13] = ECHCG: barnyardgrass (Echinochloa crus-galli), read-out: Visual Growth Reduction (%) 14 Days After Application, ECHCG
[14] = ORYSA: rice (Oryza sativa), read-out: Visual Growth Reduction (%) 14 Days After Application, ORYSA
[15] = SETFA: giant foxtail (Setaria faberi), read-out: Visual Growth Reduction (%) 14 Days After Application, SETFA
[16] = SORVU: grain sorghum (Sorghum vulgare), read-out: Visual Growth Reduction (%) 14 Days After Application, SORVU
[17] = ZEAMX: maize, corn (Zea mays), read-out: Visual Growth Reduction (%) 14 Days After Application, ZEAMX

Structure (SMILES) | pest or weed control at 70 g/ha [1, 3] [%] | pest or weed control at 140 g/ha [1, 3] [%] | pest or weed control at 70 g/ha [1, 4] [%] | pest or weed control at 140 g/ha [1, 4] [%] | pest or weed control at 70 g/ha [1, 5] [%] | pest or weed control at 140 g/ha [1, 5] [%] | pest or weed control at 70 g/ha [1, 6] [%] | pest or weed control at 140 g/ha [1, 6] [%] | pest or weed control at 70 g/ha [1, 7] [%] | pest or weed control at 140 g/ha [1, 7] [%] | pest or weed control at 70 g/ha [1, 8] [%] | pest or weed control at 140 g/ha [1, 8] [%] | pest or weed control at 70 g/ha [1, 9] [%] | pest or weed control at 140 g/ha [1, 9] [%] | pest or weed control at 70 g/ha [2, 10] [%] | pest or weed control at 140 g/ha [2, 10] [%] | pest or weed control at 70 g/ha [2, 11] [%] | pest or weed control at 140 g/ha [2, 11] [%] | pest or weed control at 70 g/ha [2, 12] [%] | pest or weed control at 140 g/ha [2, 12] [%] | also measured
COC(=O)c1nc(-c2ccc(OC(F)F)cc2)c(C)c(N)c1Cl [Compound 111, Methyl 4-amino-3-chloro-6-(4-(difluoromethoxy)phenyl)-5-methylpicolinate] | 30 to 44 | 60 to 74 | 0 to 29 | 0 to 29 | 0 to 29 | 0 to 29 | 30 to 44 | 60 to 74 | 0 to 29 | 0 to 29 | 75 to 84 | 85 to 94 | 0 to 29 | 0 to 29 | 0 to 29 | 0 to 29 | 0 to 29 | 0 to 29 | 0 to 29 | 0 to 29 | pest or weed control at 70 g/ha [2, 13]: 0 to 29%; pest or weed control at 140 g/ha [2, 13]: 0 to 29%; pest or weed control at 70 g/ha [2, 14]: 0 to 29%; pest or weed control at 140 g/ha [2, 14]: 0 to 29%; pest or weed control at 70 g/ha [2, 15]: 0 to 29%; pest or weed control at 140 g/ha [2, 15]: 0 to 29%; pest or weed control at 70 g/ha [2, 16]: 0 to 29%; pest or weed control at 140 g/ha [2, 16]: 0 to 29%; pest or weed control at 70 g/ha [2, 17]: 0 to 29%; pest or weed control at 140 g/ha [2, 17]: 0 to 29%
COC(=O)c1nc(-c2ccc(Br)c(F)c2)c(C)c(N)c1Cl [Compound 112, Methyl 4-amino-6-(4-bromo-3-fluorophenyl)-3-chloro-5-methylpicolinate] | 95 to 100 | 95 to 100 | 95 to 100 | 95 to 100 | 85 to 94 | 85 to 94 | 85 to 94 | 85 to 94 | 0 to 29 | 0 to 29 | 95 to 100 | 95 to 100 | 0 to 29 | 0 to 29 | 45 to 59 | 60 to 74 | 95 to 100 | 95 to 100 | 60 to 74 | 60 to 74 | pest or weed control at 70 g/ha [2, 13]: 60 to 74%; pest or weed control at 140 g/ha [2, 13]: 60 to 74%; pest or weed control at 70 g/ha [2, 14]: 0 to 29%; pest or weed control at 140 g/ha [2, 14]: 0 to 29%; pest or weed control at 70 g/ha [2, 15]: 85 to 94%; pest or weed control at 140 g/ha [2, 15]: 95 to 100%; pest or weed control at 70 g/ha [2, 16]: 85 to 94%; pest or weed control at 140 g/ha [2, 16]: 85 to 94%; pest or weed control at 70 g/ha [2, 17]: 60 to 74%; pest or weed control at 140 g/ha [2, 17]: 60 to 74%
